From ChEMBL document CHEMBL4425136, “4-Oxo-1,4-dihydroquinoline-3-carboxamide Derivatives as New Axl Kinase Inhibitors” (J Med Chem, 2016)
Each block holds one compound with its values, some of them ahead of it.

Key:
[1] = target: T1, Tyrosine-protein kinase receptor UFO (Homo sapiens, UniProt P30530); experiment: Inhibition of human recombinant AXL incubated for 1 to 1.5 hrs by FRET based Z'-Lyte kinase assay
T1 sequence (P30530 whole entry): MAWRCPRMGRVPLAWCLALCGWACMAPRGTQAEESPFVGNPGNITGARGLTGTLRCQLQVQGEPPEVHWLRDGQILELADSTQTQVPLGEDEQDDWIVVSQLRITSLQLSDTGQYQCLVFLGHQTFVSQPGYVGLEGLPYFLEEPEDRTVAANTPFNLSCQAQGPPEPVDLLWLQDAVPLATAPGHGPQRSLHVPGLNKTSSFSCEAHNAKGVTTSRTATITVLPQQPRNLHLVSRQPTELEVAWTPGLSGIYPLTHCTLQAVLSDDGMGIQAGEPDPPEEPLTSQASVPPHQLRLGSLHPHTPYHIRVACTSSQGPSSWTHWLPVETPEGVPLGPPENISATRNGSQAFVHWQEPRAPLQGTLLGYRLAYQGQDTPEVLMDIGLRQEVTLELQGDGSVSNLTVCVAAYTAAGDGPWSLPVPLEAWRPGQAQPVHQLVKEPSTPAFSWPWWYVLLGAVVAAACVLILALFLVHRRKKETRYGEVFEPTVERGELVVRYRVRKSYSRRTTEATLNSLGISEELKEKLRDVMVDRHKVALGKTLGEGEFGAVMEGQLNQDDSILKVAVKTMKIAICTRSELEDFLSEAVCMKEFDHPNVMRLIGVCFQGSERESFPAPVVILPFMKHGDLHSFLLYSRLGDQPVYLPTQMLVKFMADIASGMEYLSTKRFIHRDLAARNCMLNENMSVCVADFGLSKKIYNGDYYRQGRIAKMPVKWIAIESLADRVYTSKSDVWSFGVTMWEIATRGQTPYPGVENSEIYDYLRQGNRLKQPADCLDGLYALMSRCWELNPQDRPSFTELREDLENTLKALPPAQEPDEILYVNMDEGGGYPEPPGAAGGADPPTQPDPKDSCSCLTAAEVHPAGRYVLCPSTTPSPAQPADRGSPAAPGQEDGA

[2] = target: T1, Tyrosine-protein kinase receptor UFO; experiment: Binding affinity to human AXL by active site dependent completion binding assay
MDA-MB-231 [3] = experiment: Effect on total AXL protein level in human MDA-MB-231 cells at 0.03 to 3 uM after 6 hrs by Western blot method; assay type: ADME, cell-based; conditions: mda-mb-231, 6 h
MDA-MB-231 [4] = experiment: Effect on total AKT protein level in human MDA-MB-231 cells at 0.03 to 3 uM after 6 hrs by Western blot method; assay type: ADME, cell-based; conditions: mda-mb-231, 6 h
MDA-MB-231 [5] = experiment: Antiproliferative activity against human MDA-MB-231 cells after 24 to 72 hrs by MTT assay; assay type: functional, cell-based
4T1 [6] = experiment: Antiproliferative activity against mouse 4T1 cells over-expressing Axl cells after 24 to 72 hrs by MTT assay; assay type: functional, cell-based
MDA-MB-231 [7] = experiment: Antiproliferative activity against human MDA-MB-231 cells after 24 to 72 hrs by CCK8 assay; assay type: functional, cell-based
4T1 [8] = experiment: Antiproliferative activity against mouse 4T1 cells over-expressing Axl cells after 24 to 72 hrs by CCK8 assay; assay type: functional, cell-based
[9] = Tmax in Sprague-Dawley rat at 25 mg/kg, po by LC/MS method; assay type: ADME, organism-based; conditions: in vivo
[10] = Oral bioavailability in Sprague-Dawley rat at 25 mg/kg by LC/MS method; assay type: ADME, organism-based; conditions: in vivo
[11] = target: ALK tyrosine kinase receptor (Homo sapiens, UniProt Q9UM73); experiment: Binding affinity to human ALK
[12] = target: T1, Tyrosine-protein kinase receptor UFO; experiment: Binding affinity to human AXL
[13] = target: Tyrosine-protein kinase Blk (Homo sapiens, UniProt P51451); experiment: Binding affinity to human BLK
Chain of Tyrosine-protein kinase Blk (P51451 whole entry): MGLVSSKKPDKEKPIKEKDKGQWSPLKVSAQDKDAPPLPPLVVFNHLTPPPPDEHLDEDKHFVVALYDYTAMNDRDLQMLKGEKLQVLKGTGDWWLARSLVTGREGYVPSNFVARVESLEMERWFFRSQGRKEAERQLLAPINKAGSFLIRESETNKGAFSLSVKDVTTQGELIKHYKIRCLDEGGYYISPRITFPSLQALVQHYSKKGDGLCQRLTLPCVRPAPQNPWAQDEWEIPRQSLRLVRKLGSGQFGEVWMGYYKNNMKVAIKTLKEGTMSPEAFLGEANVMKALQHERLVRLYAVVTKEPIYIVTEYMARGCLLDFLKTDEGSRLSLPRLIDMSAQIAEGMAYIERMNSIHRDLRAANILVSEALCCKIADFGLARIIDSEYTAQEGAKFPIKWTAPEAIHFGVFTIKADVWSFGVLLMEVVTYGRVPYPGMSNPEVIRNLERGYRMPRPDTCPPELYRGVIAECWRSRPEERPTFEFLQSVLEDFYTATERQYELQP

Aurora kinase A = Aurora kinase A (Homo sapiens, UniProt O14965); experiment: Inhibition of aurora A (unknown origin)
Chain of Aurora kinase A (O14965 whole entry): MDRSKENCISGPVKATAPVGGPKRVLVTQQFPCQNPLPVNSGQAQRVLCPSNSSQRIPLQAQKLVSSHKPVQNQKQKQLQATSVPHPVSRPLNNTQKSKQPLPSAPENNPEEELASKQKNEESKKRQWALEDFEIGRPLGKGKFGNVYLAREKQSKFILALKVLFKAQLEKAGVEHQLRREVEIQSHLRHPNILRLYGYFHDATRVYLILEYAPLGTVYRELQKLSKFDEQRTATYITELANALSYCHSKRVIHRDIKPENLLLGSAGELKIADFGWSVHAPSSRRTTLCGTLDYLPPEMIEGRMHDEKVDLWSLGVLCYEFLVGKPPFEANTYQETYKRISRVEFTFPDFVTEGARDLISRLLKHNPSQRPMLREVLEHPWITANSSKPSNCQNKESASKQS

Aurora kinase B = Aurora kinase B (Homo sapiens, UniProt Q96GD4); experiment: Inhibition of aurora B (unknown origin)
Chain of Aurora kinase B (Q96GD4 whole entry): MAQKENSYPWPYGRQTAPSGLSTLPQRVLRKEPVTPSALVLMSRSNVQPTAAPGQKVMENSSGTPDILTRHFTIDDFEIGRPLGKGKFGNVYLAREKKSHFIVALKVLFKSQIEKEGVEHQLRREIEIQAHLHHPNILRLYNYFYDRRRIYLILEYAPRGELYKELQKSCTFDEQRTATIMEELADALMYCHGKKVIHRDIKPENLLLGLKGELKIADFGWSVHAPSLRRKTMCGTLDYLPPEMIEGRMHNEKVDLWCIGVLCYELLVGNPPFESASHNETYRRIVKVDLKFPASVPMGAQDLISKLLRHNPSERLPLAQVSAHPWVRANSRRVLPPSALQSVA

[14] = target: Cyclin-dependent kinase 11B (Homo sapiens, UniProt P21127); experiment: Binding affinity to human CDK11
[15] = target: Cyclin-dependent kinase 8 (Homo sapiens, UniProt P49336); experiment: Binding affinity to human CDK8
[16] = target: Epithelial discoidin domain-containing receptor 1 (Homo sapiens, UniProt Q08345); experiment: Inhibition of DDR1 (unknown origin)
[17] = target: Discoidin domain-containing receptor 2 (Homo sapiens, UniProt Q16832); experiment: Inhibition of DDR2 (unknown origin)
[18] = target: T2, Receptor-type tyrosine-protein kinase FLT3 (Homo sapiens, UniProt P36888); experiment: Binding affinity to human FLT3
T2 sequence (P36888 whole entry): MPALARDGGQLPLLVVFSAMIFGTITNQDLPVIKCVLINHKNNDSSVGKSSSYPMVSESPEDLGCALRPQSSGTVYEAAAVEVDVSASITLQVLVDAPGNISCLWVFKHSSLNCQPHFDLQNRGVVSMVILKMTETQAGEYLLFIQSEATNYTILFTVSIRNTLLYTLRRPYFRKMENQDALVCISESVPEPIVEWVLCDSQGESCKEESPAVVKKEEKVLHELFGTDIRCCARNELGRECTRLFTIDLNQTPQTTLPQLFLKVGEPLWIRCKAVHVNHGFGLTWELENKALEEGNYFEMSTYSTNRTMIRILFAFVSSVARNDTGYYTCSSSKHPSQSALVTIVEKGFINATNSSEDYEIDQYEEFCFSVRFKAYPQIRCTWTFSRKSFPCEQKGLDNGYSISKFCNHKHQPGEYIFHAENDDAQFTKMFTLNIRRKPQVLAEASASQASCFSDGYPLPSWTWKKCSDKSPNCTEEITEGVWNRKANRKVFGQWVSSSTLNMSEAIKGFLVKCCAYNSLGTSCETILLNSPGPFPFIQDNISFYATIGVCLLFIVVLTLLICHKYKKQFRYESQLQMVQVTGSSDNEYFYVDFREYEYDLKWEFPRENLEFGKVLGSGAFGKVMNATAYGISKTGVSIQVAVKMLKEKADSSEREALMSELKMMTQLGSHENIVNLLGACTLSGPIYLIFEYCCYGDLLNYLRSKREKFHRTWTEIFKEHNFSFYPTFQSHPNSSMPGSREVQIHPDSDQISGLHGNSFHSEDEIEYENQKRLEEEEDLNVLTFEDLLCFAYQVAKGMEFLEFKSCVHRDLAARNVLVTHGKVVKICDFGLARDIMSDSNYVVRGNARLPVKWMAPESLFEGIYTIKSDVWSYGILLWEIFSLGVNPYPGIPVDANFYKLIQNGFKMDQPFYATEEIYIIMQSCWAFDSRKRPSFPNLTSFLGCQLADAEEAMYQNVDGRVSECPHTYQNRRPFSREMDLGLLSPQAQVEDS

[19] = target: T2, Receptor-type tyrosine-protein kinase FLT3; experiment: Inhibition of FLT3 (unknown origin)
[20] = target: Homeodomain-interacting protein kinase 4 (Homo sapiens, UniProt Q8NE63); experiment: Binding affinity to human HIPk4
[21] = target: Mast/stem cell growth factor receptor Kit (Homo sapiens, UniProt P10721); experiment: Binding affinity to human KIT
Chain of Mast/stem cell growth factor receptor Kit (P10721 whole entry): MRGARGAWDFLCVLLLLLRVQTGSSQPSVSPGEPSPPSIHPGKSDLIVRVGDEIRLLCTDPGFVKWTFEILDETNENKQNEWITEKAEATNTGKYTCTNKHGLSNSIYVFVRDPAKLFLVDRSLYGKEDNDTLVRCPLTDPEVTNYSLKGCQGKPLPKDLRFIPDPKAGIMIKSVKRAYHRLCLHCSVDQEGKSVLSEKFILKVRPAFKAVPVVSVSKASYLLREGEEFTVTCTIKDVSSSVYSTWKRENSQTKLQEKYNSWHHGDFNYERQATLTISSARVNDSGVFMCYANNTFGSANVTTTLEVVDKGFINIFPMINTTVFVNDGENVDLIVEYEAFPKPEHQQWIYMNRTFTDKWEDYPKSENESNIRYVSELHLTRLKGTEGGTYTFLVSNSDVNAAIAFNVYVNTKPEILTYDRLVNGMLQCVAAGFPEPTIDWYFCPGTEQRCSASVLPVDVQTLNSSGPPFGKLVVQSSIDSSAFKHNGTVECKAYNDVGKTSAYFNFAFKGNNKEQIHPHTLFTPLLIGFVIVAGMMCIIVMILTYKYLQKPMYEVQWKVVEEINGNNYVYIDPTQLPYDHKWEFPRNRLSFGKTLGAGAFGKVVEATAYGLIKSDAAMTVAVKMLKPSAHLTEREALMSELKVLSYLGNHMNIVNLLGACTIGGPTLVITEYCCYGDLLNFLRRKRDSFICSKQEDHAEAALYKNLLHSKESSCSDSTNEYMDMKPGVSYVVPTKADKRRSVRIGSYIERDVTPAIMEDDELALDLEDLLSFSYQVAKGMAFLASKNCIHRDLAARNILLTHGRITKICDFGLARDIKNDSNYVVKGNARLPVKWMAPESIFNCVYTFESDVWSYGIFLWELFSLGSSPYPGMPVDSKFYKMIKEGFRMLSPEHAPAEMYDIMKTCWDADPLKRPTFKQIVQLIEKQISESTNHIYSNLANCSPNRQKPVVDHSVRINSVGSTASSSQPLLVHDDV

[22] = target: Serine/threonine-protein kinase 10 (Homo sapiens, UniProt O94804); experiment: Binding affinity to human LOK
[23] = target: Dual specificity mitogen-activated protein kinase kinase 5 (Homo sapiens, UniProt Q13163); experiment: Binding affinity to human MEK5
Chain of Dual specificity mitogen-activated protein kinase kinase 5 (Q13163 whole entry): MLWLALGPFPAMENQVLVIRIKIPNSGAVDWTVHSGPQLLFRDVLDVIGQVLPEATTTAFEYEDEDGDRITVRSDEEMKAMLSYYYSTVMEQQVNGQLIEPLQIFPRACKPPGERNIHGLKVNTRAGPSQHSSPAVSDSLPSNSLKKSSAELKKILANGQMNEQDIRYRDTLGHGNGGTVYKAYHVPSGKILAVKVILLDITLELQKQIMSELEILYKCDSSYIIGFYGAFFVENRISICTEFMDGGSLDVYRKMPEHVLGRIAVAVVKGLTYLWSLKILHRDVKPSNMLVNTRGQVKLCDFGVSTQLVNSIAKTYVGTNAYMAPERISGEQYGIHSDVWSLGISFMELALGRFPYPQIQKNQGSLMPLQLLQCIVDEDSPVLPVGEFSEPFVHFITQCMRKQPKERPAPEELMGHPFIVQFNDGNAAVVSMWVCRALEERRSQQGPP

[24] = target: Tyrosine-protein kinase Mer (Homo sapiens, UniProt Q12866); experiment: Binding affinity to human MER
[25] = target: Hepatocyte growth factor receptor (Homo sapiens, UniProt P08581); experiment: Binding affinity to human MET
Chain of Hepatocyte growth factor receptor (P08581 whole entry): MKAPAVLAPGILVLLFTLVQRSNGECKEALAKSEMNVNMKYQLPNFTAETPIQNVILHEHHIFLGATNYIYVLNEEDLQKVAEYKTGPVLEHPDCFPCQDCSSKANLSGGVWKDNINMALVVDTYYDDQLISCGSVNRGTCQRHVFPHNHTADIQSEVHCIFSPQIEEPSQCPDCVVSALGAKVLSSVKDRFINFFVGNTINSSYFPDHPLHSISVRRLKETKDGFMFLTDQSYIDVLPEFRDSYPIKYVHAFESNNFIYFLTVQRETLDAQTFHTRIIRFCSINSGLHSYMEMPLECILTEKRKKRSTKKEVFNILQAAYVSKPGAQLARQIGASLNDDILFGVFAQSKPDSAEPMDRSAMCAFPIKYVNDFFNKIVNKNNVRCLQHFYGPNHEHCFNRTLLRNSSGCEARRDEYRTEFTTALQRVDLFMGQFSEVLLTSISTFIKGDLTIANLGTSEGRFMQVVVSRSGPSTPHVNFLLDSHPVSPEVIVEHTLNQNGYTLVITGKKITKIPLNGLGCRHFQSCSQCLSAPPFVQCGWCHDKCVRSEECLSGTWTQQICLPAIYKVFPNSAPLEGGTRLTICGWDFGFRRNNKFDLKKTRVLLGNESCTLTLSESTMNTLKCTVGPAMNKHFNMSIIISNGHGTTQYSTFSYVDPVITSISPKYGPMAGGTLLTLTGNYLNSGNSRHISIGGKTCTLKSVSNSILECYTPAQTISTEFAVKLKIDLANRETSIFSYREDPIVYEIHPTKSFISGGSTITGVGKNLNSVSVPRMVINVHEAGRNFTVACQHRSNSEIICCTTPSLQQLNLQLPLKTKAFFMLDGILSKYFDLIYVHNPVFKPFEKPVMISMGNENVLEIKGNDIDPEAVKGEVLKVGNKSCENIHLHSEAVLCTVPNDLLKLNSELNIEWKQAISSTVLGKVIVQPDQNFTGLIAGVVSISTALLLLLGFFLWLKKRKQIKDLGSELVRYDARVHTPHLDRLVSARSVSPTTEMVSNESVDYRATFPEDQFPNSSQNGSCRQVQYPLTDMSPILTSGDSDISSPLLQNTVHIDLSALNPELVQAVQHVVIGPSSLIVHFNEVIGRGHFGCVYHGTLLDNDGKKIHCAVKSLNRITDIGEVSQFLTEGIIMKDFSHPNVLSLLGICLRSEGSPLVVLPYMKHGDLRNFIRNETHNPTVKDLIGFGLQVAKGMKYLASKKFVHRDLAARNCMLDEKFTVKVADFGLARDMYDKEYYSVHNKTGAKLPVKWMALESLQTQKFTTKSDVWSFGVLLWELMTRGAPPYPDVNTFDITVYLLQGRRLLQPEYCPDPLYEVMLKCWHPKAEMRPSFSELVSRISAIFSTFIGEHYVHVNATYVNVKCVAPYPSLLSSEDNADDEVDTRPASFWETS

[26] = target: STE20-like serine/threonine-protein kinase (Homo sapiens, UniProt Q9H2G2); experiment: Binding affinity to human SLK
[27] = target: High affinity nerve growth factor receptor (Homo sapiens, UniProt P04629); experiment: Binding affinity to human TRKA
[28] = target: BDNF/NT-3 growth factors receptor (Homo sapiens, UniProt Q16620); experiment: Binding affinity to human TRKB
[29] = target: Tyrosine-protein kinase receptor TYRO3 (Homo sapiens, UniProt Q06418); experiment: Binding affinity to human Tyro3
[30] = AUC (0 to infinity) in Sprague-Dawley rat at 2.5 mg/kg, iv by LC/MS method; assay type: ADME, organism-based; design: dose 2.5 mg/kg, route intravenous, time infinity; conditions: in vivo
[31] = Half life in Sprague-Dawley rat at 2.5 mg/kg, iv by LC/MS method; assay type: ADME, organism-based; conditions: in vivo
[32] = Cmax in Sprague-Dawley rat at 2.5 mg/kg, iv by LC/MS method; assay type: ADME, organism-based; design: dose 2.5 mg/kg, route intravenous; conditions: in vivo
[33] = Clearance in Sprague-Dawley rat at 2.5 mg/kg, iv by LC/MS method; assay type: ADME, organism-based; conditions: in vivo
[34] = Ratio of Cmax in Sprague-Dawley rat at 25 mg/kg, po to IC50 for inhibition of human recombinant AXL; assay type: organism-based; conditions: in vivo
MDA-MB-231 [35] = experiment: Inhibition of TGFbeta1-induced cell migration in human MDA-MB-231 cells at 0.2 uM incubated for 24 hrs by wound healing assay; assay type: functional; conditions: MDA-MB-231, 24 h
MDA-MB-231 [36] = experiment: Inhibition of TGFbeta1-induced cell migration in human MDA-MB-231 cells at 1 uM incubated for 24 hrs by wound healing assay; assay type: functional; conditions: MDA-MB-231, 24 h
MDA-MB-231 [37] = experiment: Inhibition of TGFbeta1-induced cell migration in human MDA-MB-231 cells at 5 uM incubated for 24 hrs by wound healing assay; assay type: functional; conditions: MDA-MB-231, 24 h
MDA-MB-231 [38] = experiment: Inhibition of TGFbeta1-induced cell invasion in human MDA-MB-231 cells at 0.04 uM incubated for 24 hrs by matrigel-mediated Boyden chamber assay; assay type: functional; conditions: MDA-MB-231, 24 h
MDA-MB-231 [39] = experiment: Inhibition of TGFbeta1-induced cell invasion in human MDA-MB-231 cells at 0.2 uM incubated for 24 hrs by matrigel-mediated Boyden chamber assay; assay type: functional; conditions: MDA-MB-231, 24 h
MDA-MB-231 [40] = experiment: Inhibition of TGFbeta1-induced cell invasion in human MDA-MB-231 cells at 1 uM incubated for 24 hrs by matrigel-mediated Boyden chamber assay; assay type: functional; conditions: MDA-MB-231, 24 h
MDA-MB-231 [41] = experiment: Inhibition of TGFbeta1-induced cell invasion in human MDA-MB-231 cells at 5 uM incubated for 24 hrs by matrigel-mediated Boyden chamber assay; assay type: functional; conditions: MDA-MB-231, 24 h
MDA-MB-231 [42] = experiment: Toxicity in human MDA-MB-231 cells at 0.04 to 5 uM incubated for 24 hrs; assay type: cell-based; conditions: mda-mb-231, 24 h

- IC50 [1]: 30 nM
SMILES: CCc1ccc2c(c1)c(=O)c(C(=O)Nc1ccc(Oc3ccnc4[nH]cc(-c5ccccc5)c34)c(F)c1)c(C)n2C

- IC50 [1]: > 10000 nM
SMILES: CCc1ccc2c(c1)c(=O)c(C(=O)Nc1ccc(Oc3ccnc(Cl)c3)c(F)c1)c(C)n2C

- IC50 [1]: 192 nM
SMILES: CCc1ccc2c(c1)c(=O)c(C(=O)Nc1ccc(Oc3ccnc4occ(-c5ccccc5)c34)c(F)c1)c(C)n2C

- IC50 [1]: 100 nM
SMILES: Cc1ccc2c(c1)c(=O)c(C(=O)Nc1ccc(Oc3ncnc4[nH]cc(-c5ccccc5)c34)c(F)c1)c(C)n2C

- IC50 [1]: 230 nM
SMILES: Cc1c(C(=O)Nc2ccc(Oc3ncnc4[nH]cc(-c5ccccc5)c34)c(F)c2)c(=O)c2cc(C3CC3)ccc2n1C

- IC50 [1]: 150 nM
SMILES: Cc1c(C(=O)Nc2ccc(Oc3ncnc4[nH]cc(-c5ccccc5)c34)c(F)c2)c(=O)c2cc(C(F)(F)F)ccc2n1C

- IC50 [1]: > 10000 nM
SMILES: CCc1ccc2c(c1)c(=O)c(C(=O)Nc1ccc(Oc3ccnc(C(N)=O)c3Cl)c(F)c1)c(C)n2C

- IC50 [1]: > 10000 nM
SMILES: COC(=O)c1ccc2c(c1)c(=O)c(C(=O)Nc1ccc(Oc3ncnc4[nH]cc(-c5ccccc5)c34)c(F)c1)c(C)n2C

- Kd [2]: 1.2 nM
- IC50 (MDA-MB-231 [5]): > 10000 nM
- IC50 (4T1 [6]): > 10000 nM
- IC50 (MDA-MB-231 [7]): > 10000 nM
- IC50 (4T1 [8]): > 10000 nM
- Tmax [9]: 0.67 h
- bioavailability [10]: 1.2%
SMILES: CCc1ccc2c(c1)c(=O)c(C(=O)Nc1ccc(Oc3ncnc4[nH]cc(-c5ccccc5)c34)c(F)c1)c(C)n2C
- Activity (MDA-MB-231 [3]): Non-Toxic
- Activity (MDA-MB-231 [4]): Non-Toxic

- IC50 [1]: 170 nM
SMILES: C=C(C)c1ccc2c(c1)c(=O)c(C(=O)Nc1ccc(Oc3ncnc4[nH]cc(-c5ccccc5)c34)c(F)c1)c(C)n2C

- IC50 [1]: 150 nM
SMILES: CCn1c(C)c(C(=O)Nc2ccc(Oc3ncnc4[nH]cc(-c5ccccc5)c34)c(F)c2)c(=O)c2cc(C)ccc21

- IC50 [1]: 3320 nM
SMILES: Cc1c(C(=O)Nc2ccc(Oc3ncnc4[nH]cc(-c5ccccc5)c34)c(F)c2)c(=O)c2cc(C3=CCCC3)ccc2n1C

- IC50 [1]: 74 nM
SMILES: Cc1c(C(=O)Nc2ccc(Oc3ncnc4[nH]cc(-c5ccccc5)c34)c(F)c2)c(=O)c2cc(OC(F)(F)F)ccc2n1C

- IC50 [1]: 30 nM
SMILES: CCc1ccc2c(c1)c(=O)c(C(=O)Nc1ccc(Oc3ncnc4[nH]cc(-c5ccccc5)c34)cc1F)c(C)n2C

- IC50 [1]: 150 nM
SMILES: Cc1ccc2c(c1)c(=O)c(C(=O)Nc1ccc(Oc3ncnc4[nH]cc(-c5ccccc5)c34)c(F)c1)cn2C

- IC50 [1]: 200 nM
SMILES: Cc1c(C(=O)Nc2ccc(Oc3ncnc4[nH]cc(-c5ccccc5)c34)c(F)c2)c(=O)c2cc(C3CCCC3)ccc2n1C

- Kd [2]: 2.7 nM
- Kd [11]: > 1000 nM
- Kd [12]: 2.7 nM
- Kd [13]: 200 nM
- IC50 (Aurora kinase A): 192 nM
- IC50 (Aurora kinase B): 114 nM
- Kd [14]: 470 nM
- Kd [15]: > 1000 nM
- IC50 [16]: 22.2 nM
- IC50 [17]: 350 nM
- Kd [18]: 4 nM
- IC50 [19]: < 10 nM
- Kd [20]: 11 nM
- Kd [21]: 1670 nM
- Kd [22]: 10 nM
- Kd [23]: 38 nM
- Kd [24]: 1.4 nM
- Kd [25]: 79 nM
- Kd [26]: 240 nM
- Kd [27]: 50 nM
- Kd [28]: 54 nM
- Kd [29]: 58 nM
- IC50 (MDA-MB-231 [5]): > 10000 nM
- IC50 (4T1 [6]): > 10000 nM
- IC50 (MDA-MB-231 [7]): > 10000 nM
- IC50 (4T1 [8]): > 10000 nM
- Tmax [9]: 6 h
- AUC(0-inf) [30]: 42300 ng·h/mL
- half-life [31]: 25.2 h
- Cmax [32]: 1170 ng/mL
- clearance [33]: 1.67 mL/min/kg
- Ratio [34]: > 900
SMILES: CCc1ccc2c(c1)c(=O)c(C(=O)Nc1ccc(Oc3ncnc4cc(OC)c(OC)cc34)c(F)c1)c(C)n2C
- Activity (MDA-MB-231 [3]): Non-Toxic
- Activity (MDA-MB-231 [4]): Non-Toxic
- inhibition at 0.2 µM (MDA-MB-231 [35]): 24.2%
- inhibition at 1 µM (MDA-MB-231 [36]): 50.6%
- inhibition at 5 µM (MDA-MB-231 [37]): 58.4%
- inhibition at 0.04 µM (MDA-MB-231 [38]): 48.5%
- inhibition at 0.2 µM (MDA-MB-231 [39]): 52.1%
- inhibition at 1 µM (MDA-MB-231 [40]): 73.5%
- inhibition at 5 µM (MDA-MB-231 [41]): 78.1%
- Activity (MDA-MB-231 [42]): Non-Toxic
